Data published in BindingDB's records for PubMed 1328199 (University of Chicago, 1992).
pKi: −log10 of the molar value. Bridge positions count the residues as written; N and C are the ends. Square brackets hold non-standard residues; d marks the D form. Peptide text beside a SMILES is read from it. * marks the point of attachment. X1 = CC(O)[C@H](CO)N*

Assays:
[1] = molecular target: Somatostatin receptor type 3 (Mus musculus, UniProt P30935)
[2] = molecular target: Somatostatin receptor type 2 (Mus musculus, UniProt P30875)
Sequence of Somatostatin receptor type 2 (P30875 whole entry): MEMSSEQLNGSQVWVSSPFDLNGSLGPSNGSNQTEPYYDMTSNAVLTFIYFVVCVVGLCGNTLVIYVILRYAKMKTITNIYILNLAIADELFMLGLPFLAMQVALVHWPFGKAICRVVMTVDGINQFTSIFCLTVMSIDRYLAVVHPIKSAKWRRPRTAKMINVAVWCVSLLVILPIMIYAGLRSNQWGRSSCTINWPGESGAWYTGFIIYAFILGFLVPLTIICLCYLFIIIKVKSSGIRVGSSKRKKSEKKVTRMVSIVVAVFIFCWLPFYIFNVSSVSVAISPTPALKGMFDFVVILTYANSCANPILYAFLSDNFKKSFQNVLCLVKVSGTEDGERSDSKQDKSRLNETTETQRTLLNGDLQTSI

Sequence of Somatostatin receptor type 3 (P30935 whole entry): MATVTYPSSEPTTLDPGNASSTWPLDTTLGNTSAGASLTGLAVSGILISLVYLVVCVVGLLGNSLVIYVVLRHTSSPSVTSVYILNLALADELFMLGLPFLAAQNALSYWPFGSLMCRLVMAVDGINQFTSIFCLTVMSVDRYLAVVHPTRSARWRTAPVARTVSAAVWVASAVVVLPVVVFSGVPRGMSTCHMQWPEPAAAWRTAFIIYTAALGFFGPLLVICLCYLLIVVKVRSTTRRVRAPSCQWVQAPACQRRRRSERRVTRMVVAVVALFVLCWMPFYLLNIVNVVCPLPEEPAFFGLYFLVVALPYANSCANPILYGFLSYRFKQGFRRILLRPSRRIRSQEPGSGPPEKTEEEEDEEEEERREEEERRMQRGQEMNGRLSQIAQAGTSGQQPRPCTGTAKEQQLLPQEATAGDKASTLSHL

CC(O)[C@H](CO)NC(=O)[C@@H]1CSSC[C@H](NC(=O)[C@H](N)Cc2ccccc2)C(=O)N[C@@H](Cc2ccccc2)C(=O)N[C@H](Cc2c[nH]c3ccccc23)C(=O)N[C@@H](CCCCN)C(=O)N[C@@H]([C@@H](C)O)C(=O)N1 (some centres undefined) (H-[dF]CF[dW]KTC-X1; disulfide 2-7)
pKi [1]: 6.82 | pKi [2]: 9.30

CC(C)[C@@H]1NC(=O)[C@H](CCCCN)NC(=O)[C@@H](Cc2c[nH]c3ccccc23)NC(=O)[C@H](Cc2ccc(O)cc2)NC(=O)[C@H](C)N(C)C(=O)[C@H](Cc2ccccc2)NC1=O [CAS_3086456]
pKi [1]: 6.57 | pKi [2]: 10.15
